pIC50: −log10 of the molar value. Where two headings read alike, the source gives them in different places.
Legend:
[1] = system: A549 cells; test: cells; format: cell-based; details: for pIC50: Homo sapiens
[2] = target: MRP1 (Homo sapiens, UniProt P33527); test: cell-based
[3] = in vitro; details: human, IC50 etoposide-induced growth inhibition
[4] = system: HEK control cells; test: cells; format: cell-based; details: Homo sapiens
[5] = A549, read-out: IC50 growth inhibition, co-treatment with 10 nM HN2
[6] = A549, read-out: IC50 growth inhibition, drug alone

Sequence of MRP1 (P33527 whole entry): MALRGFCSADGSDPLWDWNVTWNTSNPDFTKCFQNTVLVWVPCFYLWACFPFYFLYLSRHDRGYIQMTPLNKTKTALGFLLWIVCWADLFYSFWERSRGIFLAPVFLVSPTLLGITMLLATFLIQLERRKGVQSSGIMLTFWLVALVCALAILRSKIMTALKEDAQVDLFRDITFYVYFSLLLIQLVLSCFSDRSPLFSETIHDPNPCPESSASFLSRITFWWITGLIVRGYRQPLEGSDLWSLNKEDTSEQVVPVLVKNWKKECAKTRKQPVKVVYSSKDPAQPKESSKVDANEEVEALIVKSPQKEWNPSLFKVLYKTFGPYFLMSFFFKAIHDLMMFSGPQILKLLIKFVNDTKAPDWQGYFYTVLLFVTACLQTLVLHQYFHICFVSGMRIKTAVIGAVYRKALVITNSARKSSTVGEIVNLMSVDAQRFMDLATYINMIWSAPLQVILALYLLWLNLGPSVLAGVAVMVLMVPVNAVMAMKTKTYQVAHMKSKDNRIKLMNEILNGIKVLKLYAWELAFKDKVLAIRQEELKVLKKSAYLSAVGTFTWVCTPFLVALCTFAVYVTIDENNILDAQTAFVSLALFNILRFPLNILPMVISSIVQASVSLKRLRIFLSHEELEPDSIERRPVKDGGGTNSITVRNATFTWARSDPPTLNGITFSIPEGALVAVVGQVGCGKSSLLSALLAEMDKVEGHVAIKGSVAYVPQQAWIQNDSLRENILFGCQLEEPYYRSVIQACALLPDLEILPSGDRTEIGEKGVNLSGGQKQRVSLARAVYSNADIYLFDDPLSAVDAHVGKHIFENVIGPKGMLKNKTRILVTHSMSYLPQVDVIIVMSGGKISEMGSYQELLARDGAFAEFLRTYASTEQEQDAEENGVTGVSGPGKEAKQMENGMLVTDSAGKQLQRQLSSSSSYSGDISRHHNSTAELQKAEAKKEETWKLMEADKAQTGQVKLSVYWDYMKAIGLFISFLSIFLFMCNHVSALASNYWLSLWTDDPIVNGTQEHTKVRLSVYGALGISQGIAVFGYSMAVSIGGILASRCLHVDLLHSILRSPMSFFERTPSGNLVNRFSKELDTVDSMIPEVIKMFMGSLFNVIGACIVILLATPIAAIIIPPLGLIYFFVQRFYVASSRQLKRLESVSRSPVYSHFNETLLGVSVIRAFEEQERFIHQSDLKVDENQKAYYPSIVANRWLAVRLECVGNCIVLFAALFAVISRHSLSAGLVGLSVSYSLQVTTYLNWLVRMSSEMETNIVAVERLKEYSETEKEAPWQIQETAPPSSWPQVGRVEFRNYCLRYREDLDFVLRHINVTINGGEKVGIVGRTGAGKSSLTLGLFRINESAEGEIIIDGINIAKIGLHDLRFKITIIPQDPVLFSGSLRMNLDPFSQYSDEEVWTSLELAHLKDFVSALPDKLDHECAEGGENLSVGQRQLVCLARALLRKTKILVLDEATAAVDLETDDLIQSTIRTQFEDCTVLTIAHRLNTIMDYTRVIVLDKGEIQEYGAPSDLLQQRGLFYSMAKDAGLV

Structure (SMILES) | pIC50 [1, 5] | pIC50 [1, 6] | other results
CN(C)C(=O)CCSC(SCCC(=O)O)c1cccc(/C=C/c2ccc3ccc(Cl)cc3n2)c1 (stereo not drawn) [MK-571] | – | – | Increase in sensitivity to MRP1 substrate drugs [1]: six-fold
CN(Cc1cnc2nc(N)nc(N)c2n1)c1ccc(C(=O)N[C@@H](CCC(=O)O)C(=O)O)cc1 [Methotrexate, methotrexate] | 7.32 | 6.64 | –
CC[C@]1(O)C[C@H]2CN(CCc3c([nH]c4ccccc34)[C@@](C(=O)OC)(c3cc4c(cc3OC)N(C=O)[C@H]3[C@@](O)(C(=O)OC)[C@H](OC(C)=O)[C@]5(CC)C=CCN6CC[C@]43[C@@H]65)C2)C1 [Vincristine, vincristine] | 7.35 | 6.44 | –
CCOC(=O)C#CC(=O)OCC [diethyl acetylenedicarboxylate] | – | – | pIC50 [2]: 8.22
COc1cc([C@@H]2c3cc4c(cc3[C@@H](O[C@@H]3O[C@@H]5CO[C@@H](C)O[C@H]5[C@H](O)[C@H]3O)[C@H]3COC(=O)[C@H]23)OCO4)cc(OC)c1O [etoposide] | 7.12 | 6.00 | pIC50 ([3]; co-treated with 10 nM HN2): 7.38; pIC50 ([3]; etoposide alone): 6.02; pIC50 ([4]; read-out: IC50 etoposide-induced growth inhibition, co-treatment with 3 nM HN2): 7.33; pIC50 ([4]; read-out: IC50 etoposide-induced growth inhibition, etoposide alone): 7.26

From patent US10786542B2 (priority 2016, dated 2020)
